Results taken from US10603357B2, “Therapeutic TREM-1 peptides” (Universite de Lorraine, priority 2004, dated 2020).

Legend:
Format in all cases: in vivo, mouse
[1] = test system: BALB/c mice; assay: endotoxin-induced septic shock in mice, hP5 (Example 5); conditions: 200 microliters peptide i.p. at −1 h, 0 h, +4 h, 200 microg LPS i.p., 15 mice per group
Method: Septic shock was induced in male Balb/c mice (n=15/group) with […] of LPS as described in Material and Methods. hP5 peptide or control were administered at the following time points: −1 h, 0 h, +1 h+4 h. Mortality was followed twice a day for 7 days. Data were analysed using GraphPad Prism Survival curve analysis.
For the experiment, male BALB/c mice (19-21 g) were randomly grouped (15 mice per group) and injected intraperitoneally (i.p.) with 200 microg of LPS from E. coli 0111:B4 (Sigma). A blinded investigator performed all injections. 200 microliters of TREM-1 peptides dissolved in water 10% DMSO, 9% Solutol were administered intraperitoneally at −1 h, 0 h, +1 h, +4 h prior and after LPS injection. Viability of treated mice was monitored twice a day for 7 days.

[2] = test system: mice; assay: DSS colitis model in mice, hP5 (Example 7)
Method: On day 0 of the study, the water supply was removed and replaced with 3% Dextran Sulfate Sodium (DSS) From day 0 to day 6, this solution was the only source of fluids. Water was administered for the rest of the experiment (day 7-11). Healthy controls received water only.
From day 3 to day 10 mice were treated with either hP5, or a sequence-scrambled control peptide. Peptides were dissolved in DMSO at 10 mg/ml and stored at +4° C. Before administration, the stock solution was diluted 1:10 in water 10% Solutol® HS 15 (BASF). Final vehicle concentrations: 1% DMSO, 10% solutol in water. 200 μl of these freshly prepared solutions of hP5, its scrambled control or vehicle were injected intraperitoneally with a 25 G needle.
Animals were weighted daily and monitored on days 3, 4, 5, 6, 7 and 10 for rectal bleeding and stool consistency. For each group, the disease activity index (DAI) was determined by evaluating changes in weight, stool consistency and presence of gross blood during the study, as described below:
To determine the presence of occult blood in stool, a pea-sized stool sample was placed on a slide. Then two drops of reagent (Hemocult Sensa, Beckman Coulter) were placed onto the stool sample on the slide and a change of colour was observed. The presence of occult blood was graded using a score of 0 for no colour; 1 for a very light blue (+/−) colour taking over 30 seconds to appear, 2 for a blue colour developing in […] (+); 3 for an immediate change in colour (++) and 4 for gross blood observable on the slide.
On day 11 mice were euthanized by cervical dislocation to allow colon length evaluation. An incision was done in the abdomen to expose the colon. The stool in the colon was removed flushing with saline. The entire colon from cecum to anus was removed and the length was measured and reported as colon length (cm).
Data were analyzed using Graph Pad Prism. Results are given as means±standard error of the mean. The BW score, stool score and blood score were analyzed using two-way ANOVA test, Bonferroni post test. Colon length was analysed using one-way ANOVA, Dunn's post test. *P≤0.05; **P≤0.01; ***P≤0.001

[3] = test system: C57BL/6 mice; assay: Cecal Ligation and Puncture model in mice, hP5 (Example 6); conditions: 200 μl i.p. at −1 h, 0 h, +4 h and +24 hours; n=15/group
Method: Mortality was followed twice a day for 10 days. Data were analyzed using GraphPad Prism Survival curve analysis.
For the experiment the mice underwent a standardized preparation for laparotomy (anaesthesia with 2% inhaled isoflurane in oxygen, shaving with animal clippers, alcohol scrub). A 1 cm incision was made on the midline. The cecum was exposed and will be tightly ligated at 50-80% over its base with a 4-0 silk suture avoiding bowel obstruction. The cecum was then punctured once with a 23G needle. The cecum was gently squeezed until feces be just visible through the puncture, and placed again in the abdominal cavity. The incision was thereafter be closed with a 4-0 silk. 200 μl of hP5 or its scrambled peptide control were freshly dissolved in water 10% DMSO, 9% solutol and injected intraperitoneally with a 22 G needle at the following time points: −1, 0, +4, +24. No fluid resuscitation was administered.
Survival and Moribundity were observed twice a day for 10 days.

## LQVEDSGLYQCVIYQPP (listed as Homo sapiens) [hP5]
[1]
  animals alive 7 days after LPS injection: 80%
[2]; 3% DSS day 0-6, peptide i.p. daily from day 3, day 5, mean ± standard error
  Disease Activity Index (DAI) score: 1.95±0.170
[2]; day 5
  DAI inhibition compared to DSS+vehicle or DSS+scrambled peptide: ~50%
[2]; day 10, mean ± standard error
  Stool score (stool consistency): 0.71±0.474
  blood score (haemoccult / gross blood): 0.43±0.202
  weight loss, expressed as a score: 2.00±0.436
[2]; day 11, mean ± standard error
  colon length: 7.41±0.237 cm
[3]
  mice alive at 10 days after CLP: 66.6%
  mice surviving at 72 hours after CLP: 73.3%
